Assay results reported in publication PMC12833730, “Discovery of a First‐in‐Class Covalent Allosteric SHP1 Inhibitor with Immunotherapeutic Activity” (Angewandte Chemie (International Ed. in English), 2025).
“Also recorded” adds a separate entry of the source.

Tested on: MC38 tumors
Assay: CD8+ T cell / NK cell depletion in MC38 syngeneic model
Type: in vivo, C57BL/6 mice
Description: To further establish whether the inhibitory effects of M029 on tumor progression could be attributable to enhanced antitumor immune responses, we treated MC38 tumors in nude mice. […] To evaluate the importance of CD8^+ T and NK cells in M029‐induced antitumor activity, we induced CD8^+ T cell or NK cell depletion in the MC38 syngeneic model using anti‐CD8 or anti‐NK1.1 antibodies as described in Figure 6c. […] These findings are consistent with the known role of SHP1 in T cells and with our in vitro data that indicate M029 enhances T cell activation with no direct effect on tumor cells. […] These findings align with previous reports that activated CD8^+ T cells recruit NK cells to tumors through releasing cytokines and chemokines like IFN‐γ.^[ [92] ^] The observed changes in immune activity induced by M029, such as increased tumor infiltration of cytotoxic CD8^+ T cells, enhanced T cell cytotoxicity and effector function, as well as improved NK cell infiltration and activation, collectively contribute to the anticancer effects exerted by M029 treatment.
Figure 6 Cytotoxic T‐cell activity is necessary for M029 antitumor activity. […] C57BL/6 mice were injected with anti‐CD8 or anti‐NK1.1 antibodies every 3–4 days for 8 days after tumor inoculation. Mice were orally dosed with M029 or control vehicle every day for 10 days after tumor inoculation at the same time (Control, n = 4; M029, n = 6; M029 + anti‐NK1.1, n = 6; M029 + anti‐CD8, n = 6). […] This difference implied that the CD8^+ T cells were critical to induce the NK cell infiltration in M029‐treated mice, and the depletion of CD8^+ T cells diminished M029's efficacy because of the absence of activated T cells and infiltrated NK cells. Statistical analyses were performed with Graphpad Prism software 10.4.2 through the student t test or the one‐way ANOVA test using Turkey post‐hoc comparison. *p < 0.05, **p < 0.01, ***p < 0.001, and ****p < 0.0001 were considered significant. Figures are plotted as average ± standard error of the mean (SEM).
Figure S6. Representative flow cytometry results of CD8^+ T/NK cell depletion studies. In the control group and the M029-treated group, CD8^+ T cells make up ~7% of immune cells and NK cells make up ~2% of immune cells. For mice treated with anti-NK1.1 antibody, the NK cell population is negligible (<0.1%). For mice treated with anti-CD8^+ antibody, the CD8^+ T cell population dropped to ~0.1%.
For immune cell profiling in the tumor microenvironment, tumor samples were first reduced to single-cell suspensions by compressing the tumors through a 70 µm filter (Falcon, #352350) into cold 1× PBS supplemented with 5 mM EDTA using the plunger of a syringe (HSW, #4010-200V0). Samples were strained through a second filter and then re-suspended in cold blocking buffer made of 5% BSA, 0.5 mM EDTA, and a 1:1000 dilution of CD16/32. Samples were then incubated with following fluorophore-conjugated antibodies. […]

N#Cc1ccsc1NS(=O)(=O)c1ccc(NC(=O)CCl)cc1 [M029, 2-Chloro-N-(4-(N-(3-cyanothiophen-2-yl)sulfamoyl)phenyl)acetamide]
M029-induced NK cell tumor infiltration after CD8+ T cell depletion (M029 + anti-CD8): abolishment of the increase in NK cell tumor infiltration | CD8+ T cell population of immune cells (flow cytometry, Figure S6): ~ 7% | NK cell population of immune cells (flow cytometry, Figure S6): ~ 2% | antitumor efficacy in CD8+ T-cell-depleted mice (oral M029 + anti-CD8): no antitumor efficacy; also recorded: completely abolished | antitumor effects in NK cell-depleted mice (oral M029 + anti-NK1.1): remained unaffected; also recorded: did not impact
